{
  "source": "patent US6890727B2",
  "about": "“Diagnostic assay for Alzheimer's disease: assessment of Aβ abnormalities” (The General Hospital Corporation, priority 1994, dated 2005)",
  "key": {"[1]": {"assay": "65Zn2+ binding to immobilized peptide (dot-blot, Scatchard competition analysis)", "description": "^65Zn^2+ Binding Studies—Dissolved peptides (1.2 nMol, unless other wise stated) were dot-blotted onto polyvinylidene difluoride membrane (0.2-μm pore size; Pierce Chemical Co.), washed twice with chelating buffer (200 μl×100 mM NaCl, 20 mM Tris-HCl, 1 mM EDTA, pH 7.4), then five times with blocking buffer (200 μl×100 mM NaCl, 20 mM Tris-HCl, 1 mM MnCl2, pH 7.4), and then incubated (60 min, 20° C.) with ^65Zn (unless otherwise stated 130,000 cpm, […] ^65ZnCl2 in 200 μl of blocking buffer±competing metal ion chloride). The dot-blot was then washed with blocking buffer (5×200 μl), the dot excised, placed in a test tube, and assayed by γ-counting (11% efficiency). The equilibration volume for stoichiometry estimates was regarded as 6×200 μl. The 214 nm UV absorbance of the unbound flow-through was assayed to determine the total amount of peptide remaining bound onto the membrane. […] To alter the pH, the ^65Zn incubation was carried out in the presence of 100 mM buffer: MOPS (pH 6.5-7.0), MES (pH 5.0-6.0), acetate (pH 3.5-4.5). The dot-blot apparatus was washed with detergent and EDTA (50 mM) then rinsed and siliconized between use.\nAliquots of Aβ were incubated (60 min) with ^65Zn^2+ in the presence of varying concentrations of unlabeled Zn^2+ (0.01-50 μM total). Values shown are means±S.D., n≧3. […] (FIG. 1b) depicts specificity of the Zn^2+ binding site for various metals. Aβ was incubated (60 min) with ^65 Zn^2+ (157 nM, 138,000 cpm) and competing unlabeled metal ions (50 μM total). […] Percent binding of total counts ^65Zn^2+/min added is corrected for the amounts (in nanomoles) of peptides adhering to the membrane. […] 157 nM ^65Zn (138,000 cpm) is used in this experiment to probe immobilized peptide (1.6 nmol)."}, "[2]": {"assay": "Aβ incubation with column components, UV absorption before and after", "format": "physicochemical", "description": "To determine the part of the column onto which Aβ was precipitating, Aβ solutions were incubated with various column components and assayed by UV absorption before and after incubation. Replicating the chromatography experimental conditions, Aβ (100 μM in equilibration buffer) was incubated for 1 h in plastic reaction vessels with or without the presence of Sephadex."}, "[3]": {"assay": "Aβ binding to kaolin (aluminum silicate)", "format": "physicochemical", "description": "Aβ Binding to Kaolin (Aluminum Silicate)—Kaolin suspension was prepared in high performance liquid chromatography water (Fisher), defined, and adjusted to 50% (v/v). Aβ (40 μg) was incubated in siliconized reaction vessels with either kaolin or Sephadex G50 SF (10 μl×50% (v/v)) in Cu^2+, Zn^2+, or EDTA (100 μl in TBS, 5 min, room temperature). The suspension was then pelleted (1500×g, 3 min) and the supernatant removed and diluted 20-fold with water to bring the UV absorbance readings into the linear range. Samples were assayed at 214 nm before and after incubation with kaolin or Sephadex.\n(FIG. 3a) depicts concentration (by 214 nm absorbance) of Aβ remaining in supernatant after incubation with 10 mg of G50 Sephadex. (FIG. 3b) depicts concentration (by 214 nm absorbance) of Aβ remaining in supernatant after incubation with 10 mg of kaolin, expressed as percent of the starting absorbance."}, "trypsin": {"tested_on": "trypsin", "assay": "Tryptic digestion of Aβ after incubation with Zn2+", "format": "biochemical", "conditions": "increasing zinc concentrations", "description": "Tryptic Digestion of Aβ-Aβ1-40 (13.9 μg) was incubated with Zn^2+ ([…] in blocking buffer, 1 h, 37° C.) and then digested with trypsin (12 ng, 3 h, 37° C.). The reaction was stopped by adding SDS sample buffer containing phenylmethylsulfonyl fluoride (1 mM), boiling the samples (5 min), and applying the samples to Tris/Tricine gel electrophoresis and transfer. The blot was washed with EDTA, Coomassie-stained, incubated with ^65Zn^2+, individual bands were excised, assayed for ^65Zn^2+ binding, and N-terminal sequenced to confirm the identity of the digestion products. The effects of Zn^2+ (up to 100 μM in TBS) on the activity of trypsin, itself, were assayed by assay of Z-Arg-amido-4-methylcoumarin (Sigma) fluorescent cleavage product and determined to be negligible.\n(FIG. 4a) depicts a blot of tryptic digests of Aβ (13.9 μg) after incubation with increasing concentrations of zinc (lane labels, in micromolar), stained by Coomassie Blue. […] The migration of the low molecular size markers (STD) are indicated (in kilodaltons) on the right. (FIG. 4b) depicts ^65Zn^2+ binding to Aβ tryptic digestion products. The blot in 4a was incubated with ^65Zn^2+, the visible bands excised, and the bound counts for each band determined."}, "[4]": {"assay": "Zinc-induced tinctorial amyloid formation (Congo Red, polarized light)", "format": "physicochemical", "description": "FIGS. 8a and 8b are photographs showing zinc-induced tinctorial amyloid formation. […] The particle diameter is 40μ. […] The experiment was repeated with EDTA (50 μM) substituted for Zn^2+ and yielded no visible material.\nThe particle diameter is 40μ. […] The experiment was repeated with EDTA (50 μM) substituted for Zn^2+ and yielded no visible material."}, "[5]": {"assay": "not given", "remark": "listed apart in the source"}, "[6]": {"assay": "65Zn2+ binding to immobilized peptide (dot-blot, Scatchard competition analysis)", "conditions": "1 min"}, "[7]": {"conditions": "20 μM in PBS, cited from earlier work"}, "[8]": {"conditions": "centrifugation studies; cited from earlier work"}, "[9]": {"conditions": "neutral pH; cited from earlier work"}},
  "note": "Read-outs that look alike come from different tables or passages of the source.",
  "data": [
    {"substance": "Aβ1-40: synthetic peptide representing secreted human Aβ1-40, 4.3 kDa, main component of Alzheimer cerebral amyloid", "values": [
      {"measurement": "time at which ^65Zn^2+ binding plateaued", "setting": "[1]", "value": 1, "unit": "h"},
      {"measurement": "^65Zn^2+ binding at lower pH", "setting": "[1]; pH 6.0", "value": "30 % of Bmax"},
      {"measurement": "binding to Sephadex", "setting": "[2]; Aβ 100 μM, 1 h", "value": "< 1", "unit": "%"},
      {"measurement": "loss to siliconized plastic", "setting": "[2]; Aβ 100 μM, 1 h", "value": "< 1", "unit": "%"},
      {"measurement": "adsorption in borosilicate glass test tubes", "setting": "[2]; without zinc", "value": 20, "unit": "%"},
      {"measurement": "adsorption in borosilicate glass test tubes", "setting": "[2]; zinc 25 μM", "value": 35, "unit": "%"},
      {"measurement": "reversibility of binding to kaolin", "setting": "[3]; 10 mM EDTA", "value": "not reversible"},
      {"measurement": "precipitation of the peptide by kaolin", "setting": "[3]; Aβ 0.4 mg/ml, kaolin 5% v/v, 5 min, room temperature", "value": "up to 87%"},
      {"measurement": "effect of zinc on rate of tryptic digestion of the peptide", "setting": "trypsin", "value": "is inhibited by the presence of zinc"},
      {"measurement": "Zn^2+ concentration inducing amyloid by tinctorial criteria", "setting": "[4]; Congo Red", "value": 3, "unit": "µM"},
      {"measurement": "particle diameter of zinc-induced precipitate", "setting": "[4]; peptide 25 μM, Zn^2+ 25 μM, 30 minutes, 37° C.", "value": 40, "unit": "μ"},
      {"measurement": ">0.2μ particle assembly following incubation with EDTA", "setting": "EDTA", "value": "10-20%"},
      {"measurement": "near-instantaneous aggregation into >0.2μ particles", "setting": "EDTA buffer, peptide 1.6 μM", "value": 20, "unit": "%"},
      {"measurement": "peptide aggregated into >0.2μ particles", "setting": "EDTA, higher peptide concentrations", "value": "≈ 15%"},
      {"measurement": "peptide aggregated into >0.2μ particles", "setting": "EDTA, peptide 0.8 μM", "value": "no detectable aggregation"},
      {"measurement": "peptide aggregated into >0.2μ particles", "setting": "Zn^2+ 25 μM, 30 minutes, various peptide concentrations", "value": "up to 80%"},
      {"measurement": "peptide aggregated into >0.2μ particles", "setting": "Zn^2+ 25 μM, peptide 0.8 μM", "value": "> 70", "unit": "%"},
      {"measurement": "particle assembly rate of second phase", "setting": "Zn^2+ 25 μM, peptide 1.6 μM", "value": 3.2, "unit": "nM/min"},
      {"measurement": "time to steady state of the second phase", "setting": "Zn^2+ 25 μM, peptide 1.6 μM", "value": "≤ 2", "unit": "min"},
      {"measurement": "half-maximal assembly rate of initial phase", "setting": "Zn^2+ 25 μM, peptide 1.6 μM, pH 7.4", "value": "≈ 0.4 μM/min"},
      {"measurement": "time until available peptide is exhausted", "setting": "at second-phase rate", "value": "within five hours"},
      {"measurement": "peptide that would aggregate into >0.2μ particles, extrapolated", "setting": "curve of FIG. 6A extrapolated to 0.6 nM peptide, Zn^2+ 25 μM", "value": 25, "unit": "%"},
      {"measurement": "peptide recovered when retained aggregates are washed with EDTA", "setting": "[5]; >0.65 aggregates, EDTA 50 μM", "value": 22, "unit": "%"},
      {"measurement": "proportion of particles >0.1μ", "setting": "[5]; EDTA, peptide 1.6 μM", "value": 47, "unit": "%"},
      {"measurement": "proportion of particles >0.22μ", "setting": "[5]; EDTA, peptide 1.6 μM", "value": 40, "unit": "%"},
      {"measurement": "proportion of particles >0.65μ", "setting": "[5]; EDTA, peptide 1.6 μM", "value": 32, "unit": "%"},
      {"measurement": "increase of proportion of >0.1μ particles following incubation with Zn^2+", "setting": "[5]; Zn^2+ 25 μM vs EDTA", "value": 50, "unit": "%"},
      {"measurement": "increase of proportion of >0.22μ particles following incubation with Zn^2+", "setting": "[5]; Zn^2+ 25 μM vs EDTA", "value": 55, "unit": "%"},
      {"measurement": "proportion of particles >0.65μ", "setting": "[5]; Zn^2+ 25 μM, peptide 1.6 μM", "value": 82, "unit": "%"},
      {"measurement": "additional ≦0.22μ peptide resolubilized by EDTA treatment", "setting": "[5]; compared with >0.65 aggregates", "value": 7, "unit": "%"},
      {"measurement": "^65Zn^2+ binding at 1 min", "setting": "[6]", "value": 60, "unit": "% Bmax"},
      {"measurement": "time stable in solution", "setting": "[7]; pH 7.4", "value": 10, "unit": "days"},
      {"measurement": "time to half-maximal aggregation", "setting": "[7]; seeded with Aβ1-42 (2 μM)", "value": "4 to 5", "unit": "days"}
    ]},
    {"substance": "^125I-human Aβ1-40: human Aβ1-40 iodinated on the tyrosine residue at position 10, tracer", "values": [
      {"measurement": "Zn^2+ concentration required to precipitate", "setting": "[8]", "value": 1, "unit": "mM"}
    ]},
    {"substance": "insulin: insulin, literature comparison for zinc binding", "values": [
      {"measurement": "stoichiometric ratio Zn^2+:insulin in excess of which the peptide precipitates", "setting": "[9]", "value": "> 0.33"}
    ]}
  ]
}
